Test results: patent publication US9682013B2, “Pharmaceutical compositions comprising human antibodies to PCSK9” (SANOFI BIOTECHNOLOGY, priority 2011, dated 2017)

Legend:
[1] = tested on: patients with an elevated LDL-C (≧100 mg/dL or 2.59 mmol/L) treated with a stable dose of atorvastatin 10 mg; experiment: Study 2: randomized, double-blind, placebo-controlled 8-week study of 316P 150 mg E2W with atorvastatin 10 mg or 80 mg; assay type: in vivo, human; details: placebo+atorvastatin 80 mg group, previously on atorvastatin 10 mg
Method: This was a randomized, double-blind, 3-parallel-groups, placebo-controlled, fixed dose/dose regimen, multicenter, 8-week study in subjects with primary hypercholesterolemia, aged 18-75 years. One aim of this study was to assess the efficacy and safety of 316P in patients with an elevated LDL-C (≧100 mg/dL or 2.59 mmol/L) treated with a stable dose of atorvastatin 10 mg.
During the screening period, patients had to be stabilized to atorvastatin 10 mg for at least 6 weeks, if they are not already. Then, after 1 additional screening week, patients were centrally randomized via IVRS/IWRS in a 1:1:1 ratio to one of the 3 treatment groups (placebo for 316P+atorvastatin 80 mg, 316P 150 mg E2W+atorvastatin 80 mg, 316P 150 mg E2W+atorvastatin 10 mg) and treated in a double-blind manner for approximately 8 weeks. 316P was administered every 2 weeks on site trough subcutaneous injection and atorvastatin was administered orally once daily in the evening at home. The double-blind treatment period was then followed by an 8-week follow-up period.
Inclusion criteria: • Patients (patients receiving a lipid lowering treatment other than atorvastatin/or not at stable dose of atorvastatin 10 mg for at least 6 weeks prior to screening period, or drug naive patients) with primary hypercholesterolemia likely to have low-density lipoprotein cholesterol (LDL-C)≧100 mg/dL (≧2.59 mmol/L) at the end of the run-in period on atorvastatin therapy (Week-1). • OR • Patients with primary hypercholesterolemia treated with stable dose of atorvastatin 10 mg for at least 6 weeks prior to screening period and likely to have low-density lipoprotein cholesterol (LDL-C)≧100 mg/dL (≧2.59 mmol/L) at the screening visit (Week-1).
Duration of Study Period Per Subject:
• Arm 1: The first group of patients receives one subcutaneous injection of 1 mL of antibody 316P, administered in the abdomen every two weeks, with a dose regimen at 150 mg, for a double-blind treatment period of 8 weeks; • Atorvastatin is administered once per day at a stable dose of 10 mg as background therapy. • Atorvastatin is administered at a dose of 80 mg once during the double-blind treatment period of 8 weeks. • Arm 2: The second group of patients receives one subcutaneous injection of 1 mL of a placebo solution, administered in the abdomen every two weeks, with a dose regimen at 150 mg, for a double-blind treatment period of 8 weeks; • Atorvastatin is administered once per day at a stable dose of 10 mg as background therapy. • Atorvastatin is administered at a dose of 80 mg (2 over-encapsulated atorvastatin 40 mg tablets) once during the double-blind treatment period of 8 weeks. • Arm 3: The third group of patients receives one subcutaneous injection of 1 mL of antibody 316P, administered in the abdomen every two weeks, with a dose regimen at 150 mg, for a double-blind treatment period of 8 weeks; • Atorvastatin is administered once per day at a stable dose of 10 mg as background therapy. • Atorvastatin is administered at a dose of 10 mg (1 over-encapsulated atorvastatin 10 mg tablet+1 matching placebo tablet) once during the double-blind treatment period of 8 weeks. Primary and Key Secondary Endpoints Primary Endpoints
The primary efficacy variable is the percent change in calculated LDL-C from baseline to Week 8, which is defined as: 100×(calculated LDL-C value at Week 8-calculated LDL-C value at baseline)/calculated LDL-C value at baseline.
In case of unavailable calculated LDL-C value at Week 8 as defined above, then the last calculated LDL-C value measured during the efficacy period and before the Week 8 time window was used to impute the missing Week 8 calculated LDL-C value (Last Observation Carried Forward [LOCF] procedure). […]

male Syrian hamster = experiment: Study 4: cholesterol lowering effect of 316P alone and with atorvastatin in hamster; assay type: in vivo; details: treatment alone up to the maximal tolerated dose
Excerpt: This is an animal study on the cholesterol lowering effect of 316P, a fully human PCSK9 blocking monoclonal antibody in male Syrian hamster
The aim of this study was to investigate the effect of 316P, a human monoclonal antibody to human PCSK9, alone and in combination with statins on expression of the hepatic LDLR and the resulting effects on serum LDL-C.
The maximal effect on LDL-C (−17/−27/−60%) was seen within 7 days. PK data of 316P are in line with the dose-dependent effect on LDL-C.

[2] = tested on: patients with genotype-confirmed hoFH; details: ezetimibe 10 mg/day added to maximal dose of statins; cited from earlier work

| SMILES | median reduction from baseline in LDL-C at 8 weeks [1] | LDL-C (male Syrian hamster) | hepatic LDLR expression (male Syrian hamster) | total reduction of LDL-C levels [2] |
| --- | --- | --- | --- | --- |
| CC(C)c1c(C(=O)Nc2ccccc2)c(-c2ccccc2)c(-c2ccc(F)cc2)n1CC[C@@H](O)C[C@@H](O)CC(=O)O [atorvastatin, reference compound] | −26.9% | did not decrease LDL-C | no effect |  |
| O=C1[C@H](CC[C@H](O)c2ccc(F)cc2)[C@@H](c2ccc(O)cc2)N1c1ccc(F)cc1 [ezetimibe] |  |  |  | 27% |
